Patent publication US6949566B2, “Thiazole and oxazole derivatives” (Shionogi & Co. Ltd., priority 2000, dated 2005)

molecular target: T1, MMP-8 (Homo sapiens, UniProt P22894); assay: Assay for inhibitory activities on MMPs (fluorogenic peptide substrate), MMP-8; format: biochemical; conditions: catalytic domain 99Phe-262Gly; substrate MOCAc-Pro-Leu-Gly-Leu-A2Pr(DNP)-Ala-Arg-NH2
T1 construct: catalytic domain (^99Phe˜^262Gly) was amplified with PCR; His-tag; enterokinase digestion-site; made in house; host or cells: Escherichia coli
T1 sequence (P22894 99-262): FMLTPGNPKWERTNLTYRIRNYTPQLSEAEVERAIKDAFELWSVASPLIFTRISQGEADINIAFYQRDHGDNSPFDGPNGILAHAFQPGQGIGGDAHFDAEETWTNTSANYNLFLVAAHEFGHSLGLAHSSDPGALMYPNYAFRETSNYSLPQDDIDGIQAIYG
Source text: In regard to MMP-8, catalytic domain (^99Phe˜^262Gly) was amplified with PCR using commercial available Human Bone Marrow cDNA. This was cloned in Escherichia. coli expression vector pTrc99AHE inserted with His-tag sequence and enterokinase digestion-site, induced and expressed by IPTG (Isopropyl-β-D-thiogalactopyranoside) and expressed in a insoluble fraction (Thau F. Ho, M. Walid Qoronfleh, Robert C. Wahl, Trica A. Pulvino, Karen J. Vavra, Joe Falvo, Tracey M. Banks, Patricia G. Brake and Richard B. Ciccarelli: Gene expression, purification and characterization of recombinant human neutrophil collagenase. Gene 146, (1994) 297-301, Prepared by the a improved method of this material). Isolation of MMP-8 from an insoluble fraction was carried out by dissolving in modifier (6M urea) by a usual method and purification with metal chelate chromatography. And then removing modifier (6M urea) with dialysis and refolding of the enzyme spontaneously gave activated MMP-8.
(§1) The enzymatic activity on MMPs was analyzed by the method described in “C. Graham Knight, Frances Willenbrock and Gillian Murphy: A novel coumarin-labelled peptide for sensitive continuous assays of the matrix metalloproteinases: FEBS LETT., 296, (1992), 263-266”. The substrate MOCAc-Pro-Leu-Gly-Leu-A2Pr(DNP)-Ala-Arg-NH2 was purchased from Peptide Institute, Inc., Osaka, Japan. The measurement of the inhibitory activities (IC50) was carried out by the following four methods;
(§2) (A) Reaction with substrate, enzyme (MMPs) and inhibitor
(§3) (B) Reaction with substrate and inhibitor, without enzyme
(§4) (C) Reaction with substrate and enzyme (MMPs), without inhibitor
(§5) (D) Reaction with substrate only
(§6) IC50 values were calculated by using the following formula and each fluorescence values of above four methods (A to D). % inhibition={1−(A−B)/(C−D)}×100 IC50 means the concentration required to inhibit 50% of the enzyme activity.

| SMILES | IC50 [nM] |
| --- | --- |
| COc1ccc(-c2cnc(-c3ccc(S(=O)(=O)N[C@H](C)C(=O)O)cc3)o2)cc1 [Compound A-8] | 25.2 |
| CC(C)[C@@H](NS(=O)(=O)c1ccc(-c2ncc(-c3ccc(F)cc3)o2)cc1)C(=O)O [Compound A-25] | 75.9 |

More lines, now with the values ahead:

| IC50 [nM] | SMILES |
| --- | --- |
| 18.5 | COc1ccc(-c2cnc(-c3ccc(S(=O)(=O)N[C@@H](C)C(=O)O)cc3)s2)cc1 [Compound B-24] |
| 51.7 | C[C@@H](NS(=O)(=O)c1ccc(-c2ncc(-c3ccc(Cl)cc3)s2)cc1)C(=O)O [Compound B-25] |
| 92.3 | O=C(O)[C@@H](Cc1ccccc1)NS(=O)(=O)c1ccc(-c2ncc(-c3ccc(Cl)cc3)s2)cc1 [Compound B-13] |

molecular target: T2, MMP-13 (Homo sapiens, UniProt P45452); assay: Assay for inhibitory activities on MMPs (fluorogenic peptide substrate), MMP-13; format: biochemical; conditions: catalytic domain 104Tyr-267Gly; substrate MOCAc-Pro-Leu-Gly-Leu-A2Pr(DNP)-Ala-Arg-NH2
T2 construct: catalytic domain (^104Tyr˜^267Gly) was amplified with RT-PCR; His-tag; enterokinase digestion-site; made in house; host or cells: Escherichia coli
Description: (§7) In regard to MMP-13, mRNA was prepared from carcinoma cell SW1353 derived from human cartilage stimulate by IL-1, TNF and catalytic domain (^104Tyr˜^267Gly) was amplified with RT-PCR. This was cloned in Escherichia. coli expression vector pTrc99AHE inserted with His-tag sequence and enterokinase digestion-site, induced and expressed by IPTG (Isopropyl-β-D-thiogalactopyranoside) and expressed in a insoluble fraction. Isolation of MMP-13 from an insoluble fraction was carried out by dissolving in modifier (6M urea) by a usual method and purification with metal chelate chromatography (Ni Chelateing Sepharose). And then removing modifier (6M urea) with dialyze and refolding of the enzyme spontaneously gave activated MMP-13.
as §1, §2, §3, §4, §5, §6

| SMILES | IC50 [nM] |
| --- | --- |
| COc1ccc(-c2cnc(-c3ccc(S(=O)(=O)N[C@H](C)C(=O)O)cc3)o2)cc1 [Compound A-8] | 22.6 |
| CC(C)[C@@H](NS(=O)(=O)c1ccc(-c2ncc(-c3ccc(F)cc3)o2)cc1)C(=O)O [Compound A-25] | 140 |

The next lines start with the values.

| IC50 [nM] | SMILES |
| --- | --- |
| 8.4 | COc1ccc(-c2cnc(-c3ccc(S(=O)(=O)N[C@@H](C)C(=O)O)cc3)s2)cc1 [Compound B-24] |
| 4.82 | C[C@@H](NS(=O)(=O)c1ccc(-c2ncc(-c3ccc(Cl)cc3)s2)cc1)C(=O)O [Compound B-25] |
| 5.08 | O=C(O)[C@@H](Cc1ccccc1)NS(=O)(=O)c1ccc(-c2ncc(-c3ccc(Cl)cc3)s2)cc1 [Compound B-13] |

molecular target: T3, MMP-2 (Homo sapiens, UniProt P08253); assay: Assay for inhibitory activities on MMPs (fluorogenic peptide substrate), MMP-2; format: biochemical; conditions: purchased MMP-2; substrate MOCAc-Pro-Leu-Gly-Leu-A2Pr(DNP)-Ala-Arg-NH2
T3 construct: purchased Calbiochem-Novabiochem International, Inc
T3 sequence (P08253 110-660): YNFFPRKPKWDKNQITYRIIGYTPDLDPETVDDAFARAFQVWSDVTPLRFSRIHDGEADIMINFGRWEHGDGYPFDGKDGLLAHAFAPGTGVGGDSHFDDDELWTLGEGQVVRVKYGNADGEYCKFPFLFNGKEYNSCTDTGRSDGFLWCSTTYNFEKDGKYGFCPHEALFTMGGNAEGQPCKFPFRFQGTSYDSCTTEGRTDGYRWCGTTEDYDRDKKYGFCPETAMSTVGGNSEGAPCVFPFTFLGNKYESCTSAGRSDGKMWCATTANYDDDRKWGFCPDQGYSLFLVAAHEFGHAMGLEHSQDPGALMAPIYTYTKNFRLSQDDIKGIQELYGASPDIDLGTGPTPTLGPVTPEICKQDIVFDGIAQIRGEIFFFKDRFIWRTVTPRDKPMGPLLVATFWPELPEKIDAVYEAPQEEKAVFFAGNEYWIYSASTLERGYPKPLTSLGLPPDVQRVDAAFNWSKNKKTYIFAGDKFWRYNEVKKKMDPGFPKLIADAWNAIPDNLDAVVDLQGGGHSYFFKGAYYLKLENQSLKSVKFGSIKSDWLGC
Description: MMP-2 was purchased from Calbiochem-Novabiochem International, Inc.
as §1, §2, §3, §4, §5, §6

| SMILES | IC50 [nM] |
| --- | --- |
| COc1ccc(-c2cnc(-c3ccc(S(=O)(=O)N[C@H](C)C(=O)O)cc3)o2)cc1 [Compound A-8] | 3.37 |
| CC(C)[C@@H](NS(=O)(=O)c1ccc(-c2ncc(-c3ccc(F)cc3)o2)cc1)C(=O)O [Compound A-25] | 12.2 |

More lines, now with the values ahead:

| IC50 [nM] | SMILES |
| --- | --- |
| 6.3 | COc1ccc(-c2cnc(-c3ccc(S(=O)(=O)N[C@@H](C)C(=O)O)cc3)s2)cc1 [Compound B-24] |
| 0.484 | C[C@@H](NS(=O)(=O)c1ccc(-c2ncc(-c3ccc(Cl)cc3)s2)cc1)C(=O)O [Compound B-25] |
| 1.2 | O=C(O)[C@@H](Cc1ccccc1)NS(=O)(=O)c1ccc(-c2ncc(-c3ccc(Cl)cc3)s2)cc1 [Compound B-13] |

molecular target: T4, MMP-12 (Homo sapiens, UniProt P39900); assay: Assay for inhibitory activities on MMPs (fluorogenic peptide substrate), MMP-12; format: biochemical; conditions: catalytic domain 100Phe-263Gly; substrate MOCAc-Pro-Leu-Gly-Leu-A2Pr(DNP)-Ala-Arg-NH2
T4 construct: catalytic domain(^100Phe˜^263Gly) was amplified with RT-PCR; His-tag; enterokinase digestion-site; made in house; host or cells: Escherichia coli
T4 sequence (P39900 100-263): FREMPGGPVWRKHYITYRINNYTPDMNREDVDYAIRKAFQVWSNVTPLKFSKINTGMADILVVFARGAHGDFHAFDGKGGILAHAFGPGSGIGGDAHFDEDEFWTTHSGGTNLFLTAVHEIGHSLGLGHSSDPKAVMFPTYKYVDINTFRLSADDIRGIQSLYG
Description: as §7, with “MMP-12,” for “MMP-13, mRNA was prepared from carcinoma cell SW1353 derived from human cartilage stimulate by IL-1, TNF and”, “domain(^100Phe˜^263Gly)” for “domain (^104Tyr˜^267Gly)”, “RT-PCR from Human Placenta Total RNA.” for “RT-PCR.”, “MMP-12” for “MMP-13”, “dialysis” for “dialyze”, “MMP-12.” for “MMP-13.”
as §1, §2, §3, §4, §5, §6

| SMILES | IC50 [nM] |
| --- | --- |
| COc1ccc(-c2cnc(-c3ccc(S(=O)(=O)N[C@H](C)C(=O)O)cc3)o2)cc1 [Compound A-8] | 2.78 |
| CC(C)[C@@H](NS(=O)(=O)c1ccc(-c2ncc(-c3ccc(F)cc3)o2)cc1)C(=O)O [Compound A-25] | 7.48 |

Next, values leading:

| IC50 [nM] | SMILES |
| --- | --- |
| 1.5 | COc1ccc(-c2cnc(-c3ccc(S(=O)(=O)N[C@@H](C)C(=O)O)cc3)s2)cc1 [Compound B-24] |
| 0.949 | C[C@@H](NS(=O)(=O)c1ccc(-c2ncc(-c3ccc(Cl)cc3)s2)cc1)C(=O)O [Compound B-25] |
| 1.41 | O=C(O)[C@@H](Cc1ccccc1)NS(=O)(=O)c1ccc(-c2ncc(-c3ccc(Cl)cc3)s2)cc1 [Compound B-13] |

molecular target: T5, MMP-9 (Homo sapiens, UniProt P14780); assay: Assay for inhibitory activities on MMPs (fluorogenic peptide substrate), MMP-9; format: biochemical; conditions: MMP-9 from HT1080 cells, activated by TPCK-Trypsin; substrate MOCAc-Pro-Leu-Gly-Leu-A2Pr(DNP)-Ala-Arg-NH2
T5 construct: endogenous in cells; host or cells: HT1080 human fibrosarcoma cells, TPA-stimulated; enzyme purified from conditioned medium
T5 sequence (P14780 107-707 limits assumed): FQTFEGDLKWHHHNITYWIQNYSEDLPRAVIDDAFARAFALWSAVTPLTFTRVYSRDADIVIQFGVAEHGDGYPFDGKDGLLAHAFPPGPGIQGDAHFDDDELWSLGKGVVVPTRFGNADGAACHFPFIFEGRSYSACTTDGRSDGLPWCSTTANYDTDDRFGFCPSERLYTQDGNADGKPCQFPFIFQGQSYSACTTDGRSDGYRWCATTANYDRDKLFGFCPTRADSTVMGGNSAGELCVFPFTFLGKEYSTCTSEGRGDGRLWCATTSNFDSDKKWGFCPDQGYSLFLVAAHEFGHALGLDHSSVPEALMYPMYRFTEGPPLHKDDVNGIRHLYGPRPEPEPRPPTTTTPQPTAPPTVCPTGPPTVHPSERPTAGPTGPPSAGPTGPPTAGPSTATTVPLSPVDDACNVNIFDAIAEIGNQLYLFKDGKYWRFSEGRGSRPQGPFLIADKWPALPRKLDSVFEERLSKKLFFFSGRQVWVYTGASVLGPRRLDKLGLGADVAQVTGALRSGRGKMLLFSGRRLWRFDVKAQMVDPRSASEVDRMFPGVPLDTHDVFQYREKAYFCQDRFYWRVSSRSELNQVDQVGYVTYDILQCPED
Source text: MMP-9 was isolated and purified by procedures described in as follows: Yasunori Okada, Yukio Gonoji, Katsumi Naka, Katsuro Tomita, Isao Nakanishi, Kazushi Iwata, Kyoko Yamashita, and Taro Hayakawa: Matrix metalloproteinase 9 (92-kDa gelatinase/type IV collagenase) from HT1080 human fibrosarcoma cells. Purification and activation of the precursor and enzymic properties J. Biol. Chem., 1992, 267 21712-21719, in combination with others: 1)Yasunori Okada, Tatsuhisa Morodomi, Jan J, Enghild, ko Suzuki, Atsushi Yasui, Isao Nakanishi, Guy Salvesen and Hideaki Nagase: Matrix metalloproteinase 2 from human rheumatoid synovial fibroblasts. Purification and activation of the precursor and enzymic properties. Eur. J. Biochem. 1990, 194 721-730; 2)Robin V Ward, Rosalind M Hembry, John J Reynolds and Gillian Murphy: The purification of tissue inhibitor of metalloproteinase-2 from its 72 kDa progelatinase complex. Biochem. J. 1991 278 179-187. In detail, human fibrosarcoma ATCC HT1080 cell line was cultured to confluent in Dulbecco's Modified Medium (DMEM) containing 10% fetal-calf serum at 37° C. for 48 hours. Subsequently, the medium of confluent culture was changed to serum-free DMEM medium. To obtain MMP-9, Phorbol-12-myristate-13-acetate (TPA) must be added to this serum-free DMEM medium at a concentration of 50 ng/ml. The TPA treated medium was centrifuged at 3000 rpm for 15 min and the supernatant was concentrated to 450 ml by a Toyo-Roshi UP-20 apparatus with an ultrafiltration membrane. Then, proMMP-9 in this concentrated solution was purified by using columns of Gelatin-Sepharose and Concanavalin A-Sepharose. The pool containing proMMP-9 was dialyzed, concentrated (Toyo-Roshi UP-20) and applied to columns of Sephacryl S-200 and Green A matrix for the separation from TIMPs. The obtained proMMP-9 fraction was activated by TPCK-Trypsin (Final conc. 3 μg/501 μl React Mix.).
as §1, §2, §3, §4, §5, §6

| SMILES | IC50 [nM] |
| --- | --- |
| COc1ccc(-c2cnc(-c3ccc(S(=O)(=O)N[C@H](C)C(=O)O)cc3)o2)cc1 [Compound A-8] | 218 |
| CC(C)[C@@H](NS(=O)(=O)c1ccc(-c2ncc(-c3ccc(F)cc3)o2)cc1)C(=O)O [Compound A-25] | 179 |

The next lines start with the values.

| IC50 [nM] | SMILES |
| --- | --- |
| 109 | COc1ccc(-c2cnc(-c3ccc(S(=O)(=O)N[C@@H](C)C(=O)O)cc3)s2)cc1 [Compound B-24] |
| 5.69 | C[C@@H](NS(=O)(=O)c1ccc(-c2ncc(-c3ccc(Cl)cc3)s2)cc1)C(=O)O [Compound B-25] |
| 11.8 | O=C(O)[C@@H](Cc1ccccc1)NS(=O)(=O)c1ccc(-c2ncc(-c3ccc(Cl)cc3)s2)cc1 [Compound B-13] |
